Test results taken from patent publication US20120129927A1, “New Anthraquinone Derivatives” (SEALIFE PHARMA GMBH, priority 2009, published 2012).
Converted amounts (≈) assume the structure as drawn. “Also recorded” adds a separate entry of the source. Where two headings read alike, the source gives them in different places.

Tests used:
[1] = tested on: E. coli; assay: MIC test (titration method, EUCAST); assay type: cell-based; conditions: Escherichia coli, read-out: MHK (MIC) EC
Experimental: (§1) The activities of the novel compounds were tested in two different screening systems. The antibacterial and antifungal activities were examined by means of an MIC test, MIC standing for “minimal inhibitory concentration” and referring to the lowest concentration of a substance at which no proliferation of microorganisms can be observed with the naked eye. The MIC is determined by means of a so called titration method in which the substance is diluted and, subsequently, the pathogen is added to it.
(§2) Usually, this method is applied in order to determine the concentration of an antibiotic which only just inhibits the growth of a bacterial strain. The MIC is indicated in micrograms per milliliter (μg/ml), and the dilutions are conventionally carried out in log 2 steps. Herein, a starting concentration of 250 μg/ml was diluted several times, to the double volume in each case, resulting in test concentrations of 250 μg/ml, 125 μg/ml, 62.5 μg/ml, 31.2 μg/ml, 15.6 μg/ml, 7.8 μg/ml, etc. Thus, lower values indicate a better activity as an anti-infective.
(§3) The tests were carried out according to the standards of EUCAST (European Committee for Antimicrobial Susceptibility Testing) and according to the AFST-protocol (“Antifungal Susceptibility Testing” protocol) of the European Society of Clinical Microbiology and Infectious Diseases (ESCMID).
(§4) In the following Table 3, the test results indicating the anti-infective action of 3-O-acetyl altersolanol M, alterporriol I and J as well as of some known and structurally similar comparative substances against some multi-resistant bacteria and fungi (all of which were kindly placed at our disposal by Prof Georgopulos from the Medical University of Vienna). The data constituting averages of the values obtained in multiple test runs.

[2] = tested on: Enterococcus faecalis or faecium; assay: MIC test (titration method, EUCAST); assay type: cell-based; conditions: for MIC: read-out: MHK (MIC) EK
Experimental: as §1, §2, §3, §4

[3] = tested on: Staphylococcus epidermis; assay: MIC test (titration method, EUCAST); assay type: cell-based; conditions: for MIC: read-out: MHK (MIC) SE
Experimental: as §1, §2, §3, §4

[4] = tested on: Streptococcus pneumoniae; assay: MIC test (titration method, EUCAST); assay type: cell-based; conditions: for MIC: read-out: MHK (MIC) STR
Experimental: as §1, §2, §3, §4

[5] = tested on: methicillin-resistant Staphylococcus aureus; assay: MIC test (titration method, EUCAST); assay type: cell-based; conditions: for MIC: MRSA, read-out: MHK (MIC) MRSA
Experimental: as §1, §2, §3, §4

[6] = tested on: Aspergillus fumigatus or faecalis; assay: MIC test (AFST protocol); assay type: cell-based; conditions: multi-resistant Aspergillus fumigatus or faecalis, averages of multiple test runs; for MIC: read-out: MHK (MIC) ASP
Experimental: as §1, §2, §3, §4

[7] = tested on: bacteria and fungi; conditions: Aly et al., Phytochemistry 69; cited from earlier work
[8] = Yagi et al., Phytochemistry 34(4); cited from earlier work
[9] = tested on: Gram-positive bacteria and the Gram-negative species Pseudomonas aeruginosa; conditions: Okamura et al., Phytochemistry 42(1); cited from earlier work
[10] = tested on: Pseudomonas aeruginosa; assay: MIC test (titration method, EUCAST); assay type: cell-based; conditions: multi-resistant Pseudomonas aeruginosa, averages of multiple test runs
Experimental: as §1, §2, §3, §4

[11] = tested on: melanoma cells; assay: Alamar Blue assay using melanoma cells; assay type: cell-based; conditions: for inhibition at 10 µg/mL: read-out: inhibition / reduction of the number of melanoma cells
Experimental: In this test, the dye resazurin is used as an indicator for measuring the cytotoxicity of substances. […] Depending on the degree of their toxicity, cytotoxic agents decelerate or stop this reduction.
In the course of this experiment, melanoma cells were treated with several concentrations of 3-O-acetyl altersolanol M, i.e. with 1, 10, and 50 μg/ml, with altersolanol K and alterporriol F as comparative substances, as well as with alterporriol I+J, i.e. compound (5) of the present invention, at respective concentrations of 10 μg/ml, and incubated for 48 h, whereafter the samples' fluorescence was determined spectrophotometrically at 570/600 nm, the fluorescence being proportional to the number of surviving cells in the samples.
The measurement results were related to the fluorescence of a blank, to which no cytotoxic agent had been added, and are shown in a graph in FIG. 1.

[12] = tested on: Klebsiella sp.; assay: MIC test (titration method, EUCAST); assay type: cell-based; conditions: multi-resistant Klebsiella sp., averages of multiple test runs
Experimental: as §1, §2, §3, §4

[13] = Electrical Cell Substrate Impedance Sensing (ECIS) test; assay type: cell-based; conditions: results not indicated, comparison only
[14] = tested on: melanoma cells; assay: Three-dimensional tumor test in matrix gel; assay type: cell-based; conditions: 30, 50 or 3,000 μg/ml, 37° C.
Experimental: In addition to the above two-dimensional test, the cytotoxic action of 3-O-acetyl altersolanol M was also examined in an innovative three-dimensional test system. In this test, small tumors are grown in a matrix gel, in which the activity of an anti-cancer agent may be directly tested by adding said agent at different concentrations. A blank, i.e. melanoma cells without any cytotoxic agent, and an equal amount of melanoma cells together with 30, 50 or 3,000 μg/ml of 3-O-acetyl altersolanol M were incubated in the matrix gel for 120 hours at 37° C.

[15] = multi-resistant E. coli, averages of multiple test runs
[16] = multi-resistant Enterococcus faecalis or faecium, averages of multiple test runs
[17] = multi-resistant Staphylococcus epidermis, averages of multiple test runs
[18] = multi-resistant Streptococcus pneumoniae, averages of multiple test runs
[19] = methicillin-resistant Staphylococcus aureus, averages of multiple test runs
[20] = 10 μg/ml, 48 h, relative to blank

Compound: COc1cc(O)c2c(c1)C(=O)C1=C(C2=O)[C@H](O)[C@@H](O)[C@@](C)(O)[C@@H]1O [Altersolanol A, 7-methoxy-2-methyl-(1R,2S,3R,4S)-1,2,3,4-tetrahydro-1,2,3,4,5-pentahydroxy-anthracene-9,10-dione]
- MIC [1, 15]: 62.5 µg/mL (≈ 186 µM)
- MIC [2, 16]: 15.6 µg/mL (≈ 46.4 µM)
- MIC [3, 17]: 7.8 µg/mL (≈ 23.2 µM)
- MIC [4, 18]: 7.8 µg/mL (≈ 23.2 µM)
- MIC [5, 19]: 7.8 µg/mL (≈ 23.2 µM)
- MIC [6]: 7.8 µg/mL (≈ 23.2 µM)
- activity against bacteria and fungi [7]: the most efficient of the tested substances
- anti-microbial activity [8]: anti-microbial activity

Compound: COc1cc(O)c2c(c1)[C@H](O)[C@H]1C[C@](C)(O)[C@H](O)C[C@@H]1C2=O [tetrahydroaltersolanol B]
- effect against Gram-positive bacteria and Pseudomonas aeruginosa [9]: do not disclose any effect

Compound: Indole carbaldehyde (carboxaldehyde)
- MHK (MIC) PS [10]: 125 µg/mL
- MHK (MIC) STR [4, 18]: 62.5 µg/mL

Compound: Alterporriol A + B
- MHK (MIC) EK [2, 16]: 15.6 µg/mL
- MHK (MIC) SE [3, 17]: 15.6 µg/mL
- MHK (MIC) STR [4, 18]: 7.8 µg/mL
- MHK (MIC) MRSA [5, 19]: 15.6 µg/mL
- MHK (MIC) ASP [6]: 62.5 µg/mL

Compound: COc1cc(O)c(C(=O)O)c(-c2cc(O)c(O)cc2C)c1 [Altenusin]
- MIC [1]: 62.5 µg/mL (≈ 215 µM)
- MIC ([2]; Enterococcus faecalis): 62.5 µg/mL (≈ 215 µM)
- MIC ([3]; Staphylococcus): 31.2 µg/mL (≈ 107 µM)
- MIC ([4]; Streptococcus pneumoniae): 31.2 µg/mL (≈ 107 µM)
- MIC ([5]; Staphylococcus aureus): 31.2 µg/mL (≈ 107 µM)

Compound: COC1=CC(=O)c2c(O)c3c(c(O)c2C1=O)C[C@](C)(O)[C@H](O)[C@H]3O [Bostrycin]
- MIC [3, 17]: 125 µg/mL (≈ 372 µM)
- MIC [4, 18]: 62.5 µg/mL (≈ 186 µM)
- MIC [5, 19]: 125 µg/mL (≈ 372 µM)

Compound: COc1cc(O)c2c(c1-c1c(OC)cc(O)c3c1C(=O)c1cc(C)c(O)c(O)c1C3=O)C(=O)C1=C(C2=O)[C@H](O)[C@@H](O)[C@@](C)(O)[C@H]1O [Example 2, 8-(4,5,6-trihydroxy-7-methyl-2-methoxy-9,10-dioxo-9H,10H-anthracen-1-yl)-(1S,2S,3R,4S)-1,2,3,4,5-pentahydroxy-7-methoxy-2-methyl-1,2,3,4-tetrahydro-9H,10H-anthracene-9,10-dione]
- MIC [2, 16]: 7.8 µg/mL (≈ 12.3 µM)
- MIC [3, 17]: 7.8 µg/mL (≈ 12.3 µM)
- MIC [4, 18]: 7.8 µg/mL (≈ 12.3 µM)
- MIC [5, 19]: 7.8 µg/mL (≈ 12.3 µM)
- MIC [6]: 125 µg/mL (≈ 197 µM)
- result compared with comparative substances (in words) ([11]; 10 μg/ml, 48 h): slightly better results than the two comparative examples
- inhibition at 10 µg/mL [11, 20]: > 10%

Compound: Macrosporin sulfate
- MHK (MIC) STR [4, 18]: 31.2 µg/mL

Compound: COc1cc(O)c2c(c1)C(=O)C1=C(C[C@@H](O)[C@@](C)(O)C1)C2=O [altersolanol B]
- anti-microbial activity [8]: anti-microbial activity

Compound: COc1cc(O)c2c(c1)[C@H](O)[C@@H]1[C@@H](C2=O)[C@H](O)[C@@H](O)[C@@](C)(O)[C@@H]1O [Ampelanol]
- activity against bacteria and fungi [7]: do not show any activity against bacteria and fungi

Compound: altersolanol D
- anti-microbial activity [8]: completely ineffective

Compound: COc1cc(O)c2c(c1)C(=O)C1=C(C2=O)[C@@H](O)[C@H](OC(C)=O)[C@@](C)(O)[C@@H]1O [Example 1, (1R,2S,3S,4R)-3-acetoxy-1,2,4,5-tetrahydroxy-7-methoxy-2-methyl-1,2,3,4-tetrahydroanthracene-9,10-dione]
- MIC [1, 15]: 125 µg/mL (≈ 330 µM)
- MIC [2, 16]: 7.8 µg/mL (≈ 20.6 µM)
- MIC ([12]; read-out: MHK (MIC) KL): 125 µg/mL (≈ 330 µM)
- MIC ([10]; read-out: MHK (MIC) PS): 125 µg/mL (≈ 330 µM)
- MIC [3, 17]: 7.8 µg/mL (≈ 20.6 µM)
- MIC [4, 18]: 7.8 µg/mL (≈ 20.6 µM)
- MIC [5, 19]: 7.8 µg/mL (≈ 20.6 µM)
- MIC [6]: 62.5 µg/mL (≈ 165 µM)
- inhibition at 1 µg/mL ([11]; 1 μg/ml, 48 h, relative to blank, read-out: inhibition of the number of surviving cells): > 10%
- inhibition at 10 µg/mL [11, 20]: ~50%
- surviving cells (in words) ([11]; 50 μg/ml, 48 h): hardly possible to detect any surviving cells
- cytotoxic effectiveness relative to alterporriol I/J ([11]; Alamar Blue, melanoma cells): at least 10 times
- ECIS result (in words) [13]: clearly better results than alterporriol I/J
- tumor appearance after 24 hours ([14]; 24 hours): signs of degeneration
- tumor size after 120 hours ([14]; 120 hours): clearly reduced in size

Compound: COc1cc(O)c2c(c1)C(=O)[C@H]1C[C@](C)(O)[C@H](O)C[C@@H]1[C@H]2O [Altersolanol J]
- MHK (MIC) EK [2, 16]: 31.2 µg/mL
- MHK (MIC) KL [12]: 125 µg/mL
- MHK (MIC) SE [3, 17]: 62.5 µg/mL
- MHK (MIC) STR [4, 18]: 15.6 µg/mL
- MHK (MIC) MRSA [5, 19]: 62.5 µg/mL
- MHK (MIC) ASP [6]: 125 µg/mL
- activity against bacteria and fungi [7]: do not show any activity against bacteria and fungi

Compound: alterporriol E
- activity against bacteria and fungi [7]: do not show any activity against bacteria and fungi

Compound: altersolanol F
- anti-microbial activity [8]: completely ineffective

Compound: COc1cc(O)c2c(c1)C(=O)C1=C(C[C@@H](O)[C@@](C)(O)[C@@H]1O)C2=O [altersolanol C]
- anti-microbial activity [8]: anti-microbial activity

Compound: COc1cc(O)c2c(c1)C(=O)c1cc(C)c(O)cc1C2=O [Macrosporin]
- MIC [1, 15]: 62.5 µg/mL (≈ 220 µM)
- MIC [3, 17]: 62.5 µg/mL (≈ 220 µM)
- MIC [5, 19]: 62.5 µg/mL (≈ 220 µM)

Compound: COc1cc(O)c2c(c1-c1c(OC)cc(O)c3c1C(=O)C1=C(C3=O)[C@H](O)[C@@H](O)[C@@](C)(O)[C@@H]1O)C(=O)C1=C(C2=O)[C@H](O)[C@@H](O)[C@@](C)(O)[C@@H]1O [alterporriol D]
- activity against bacteria and fungi [7]: do not show any activity against bacteria and fungi

Compound: altersolanol E
- anti-microbial activity [8]: anti-microbial activity; also recorded: completely ineffective
